Data published in ChEMBL document CHEMBL1201861, “Genomics of Drug Sensitity in Cancer screening data, Wellcome Trust Sanger Institute”.

Key:
CCF-STTG1 = experiment: cells; type: functional, cell-based; details: Homo sapiens;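 further: growth inhibition of human CCF-STTG1 cells, determined with a cell viability read-out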
Description: SANGER: Inhibition of human CCF-STTG1 cell growth in a cell viability assay.

NCI-H1734 = experiment: cells; type: functional, cell-based; details: Homo sapiens;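 further: growth inhibition of human NCI-H1734 cells, read out with a cell viability assay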
Description: SANGER: Inhibition of human NCI-H1734 cell growth in a cell viability assay.

NCI-H2227 = experiment: cells; type: functional, cell-based; details: Homo sapiens;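 further: growth inhibition of the human cell line, read out with a cell viability assay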
Description: SANGER: Inhibition of human NCI-H2227 cell growth in a cell viability assay.

SNU-475 = experiment: cells; type: functional, cell-based; details: Homo sapiens
Description: SANGER: Inhibition of human SNU-475 cell growth in a cell viability assay.

MDA-MB-468 = experiment: cells; type: functional, cell-based; details: Homo sapiens
Description: SANGER: Inhibition of human MDA-MB-468 cell growth in a cell viability assay.

EFE-184 = experiment: cells; type: functional, cell-based; details: Homo sapiens
Description: SANGER: Inhibition of human EFE-184 cell growth in a cell viability assay.

NCI-H719 = experiment: cells; type: functional, cell-based; details: Homo sapiens;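 further: growth inhibition of the cultured cell line, read out with a viability assay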
Description: SANGER: Inhibition of human NCI-H719 cell growth in a cell viability assay.

COR-L279 = experiment: SANGER: Inhibition of human COR-L279 cell growth in a cell viability assay.; type: functional, cell-based
L-540 = experiment: cells; type: functional, cell-based; details: Homo sapiens;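 further: growth inhibition of the human L-540 cell line, read out with a viability assay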
Description: SANGER: Inhibition of human L-540 cell growth in a cell viability assay.

HCT-15 = experiment: cells; type: functional, cell-based, Homo sapiens; details: Homo sapiens, HCT-15;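 further: cell viability readout, IC50 reflecting suppression of HCT-15 cell growth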
Description: SANGER: Inhibition of human HCT-15 cell growth in a cell viability assay.

DV-90 = experiment: cells; type: functional, cell-based; details: Homo sapiens;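 further: Read-out is a viability assay, with IC50 reflecting the drop in DV-90 cell growth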
Description: SANGER: Inhibition of human DV-90 cell growth in a cell viability assay.

EW-7 = experiment: SANGER: Inhibition of human EW-7 cell growth in a cell viability assay.; type: functional, cell-based; details: Homo sapiens, EW-7
BL-70 = experiment: SANGER: Inhibition of human BL-70 cell growth in a cell viability assay.; type: functional, cell-based
SNG-M = experiment: cells; type: functional, cell-based; details: Homo sapiens
Description: SANGER: Inhibition of human SNG-M cell growth in a cell viability assay.

JIYOYE = experiment: cells; type: functional, cell-based; details: Homo sapiens
Description: SANGER: Inhibition of human JiyoyeP-2003 cell growth in a cell viability assay.

PLC-PRF-5 = experiment: cells; type: functional, cell-based; details: Homo sapiens;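 further: growth inhibition of human PLC-PRF-5 cells, read out with a viability assay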
Description: SANGER: Inhibition of human PLC-PRF-5 cell growth in a cell viability assay.

SK-CO-1 = experiment: cells; type: functional, cell-based; details: Homo sapiens;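 further: growth inhibition of SK-CO-1 cells, determined by a viability readout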
Description: SANGER: Inhibition of human SK-CO-1 cell growth in a cell viability assay.

TALL-1 = experiment: cells; type: functional, cell-based; details: Homo sapiens;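 further: growth inhibition of cultured human TALL-1 cells, read out by a cell viability assay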
Description: SANGER: Inhibition of human TALL-1 cell growth in a cell viability assay.

Caov-3 cell line = experiment: cells; type: functional, cell-based; details: Homo sapiens;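 further: cell growth inhibition read out by a viability assay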
Description: SANGER: Inhibition of human Caov-3 cell growth in a cell viability assay.

Calu-1 = experiment: SANGER: Inhibition of human Calu-1 cell growth in a cell viability assay.; type: functional, cell-based
OPM-2 = experiment: cells; type: functional, cell-based; details: Homo sapiens;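 further: growth of OPM-2 cells measured with a viability assay, IC50 for suppression of proliferation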
Description: SANGER: Inhibition of human OPM-2 cell growth in a cell viability assay.

NCI-H322M = experiment: cells; type: functional, cell-based; details: Homo sapiens;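 further: cell viability assay measuring inhibition of growth of human NCI-H322M cells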
Description: SANGER: Inhibition of human NCI-H322M cell growth in a cell viability assay.

IPC-298 = experiment: SANGER: Inhibition of human IPC-298 cell growth in a cell viability assay.; type: functional, cell-based
Daudi = experiment: cells; type: functional, cell-based; details: Homo sapiens;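 further: growth inhibition of Daudi cells, read out by a viability assay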
Description: SANGER: Inhibition of human Daudi cell growth in a cell viability assay.

HCC1143 = experiment: cells; type: functional, cell-based; details: Homo sapiens;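 further: growth inhibition of human HCC1143 cells, read out with a cell viability assay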
Description: SANGER: Inhibition of human HCC1143 cell growth in a cell viability assay.

CESS = experiment: SANGER: Inhibition of human CESS cell growth in a cell viability assay.; type: functional, cell-based
SR = experiment: cells; type: functional, cell-based; details: Homo sapiens
Description: SANGER: Inhibition of human SR cell growth in a cell viability assay.

SNU-C1 = experiment: cells; type: functional, cell-based; details: Homo sapiens;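 further: growth inhibition of SNU-C1 human cells, read out by a cell viability assay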
Description: SANGER: Inhibition of human SNU-C1 cell growth in a cell viability assay.

TT = experiment: cells; type: functional, cell-based; details: Homo sapiens
Description: SANGER: Inhibition of human TT cell growth in a cell viability assay.

NCI-H838 = experiment: cells; type: functional, cell-based; details: Homo sapiens;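 further: growth inhibition of human NCI-H838 cells, read out by a cell viability assay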
Description: SANGER: Inhibition of human NCI-H838 cell growth in a cell viability assay.

LC-1F = experiment: cells; type: functional, cell-based; details: Homo sapiens;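 further: growth inhibition of human LC-1F cells, read out with a cell viability assay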
Description: SANGER: Inhibition of human LC-1F cell growth in a cell viability assay.

NCI-H2196 = experiment: cells; type: functional, cell-based; details: Homo sapiens;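 further: cell viability assay used as the readout of growth inhibition in NCI-H2196 cells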
Description: SANGER: Inhibition of human NCI-H2196 cell growth in a cell viability assay.

HSC-4 = experiment: cells; type: functional, cell-based, Homo sapiens; details: Homo sapiens, HSC-4;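 further: growth inhibition of human HSC-4 cells, read out with a cell viability assay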
Description: SANGER: Inhibition of human HSC-4 cell growth in a cell viability assay.

MC-CAR = experiment: cells; type: functional, cell-based; details: Homo sapiens;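 further: growth inhibition of the human MC-CAR cell line, read out by a cell viability assay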
Description: SANGER: Inhibition of human MC-CAR cell growth in a cell viability assay.

MFE-296 = experiment: SANGER: Inhibition of human MFE-296 cell growth in a cell viability assay.; type: functional, cell-based
TUR = experiment: cells; type: functional, cell-based; details: Homo sapiens;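 further: growth inhibition of human TUR cells, read out with a cell viability assay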
Description: SANGER: Inhibition of human TUR cell growth in a cell viability assay.

C-4-II = experiment: SANGER: Inhibition of human C-4-II cell growth in a cell viability assay.; type: functional, cell-based
NCI-H1618 = experiment: cells; type: functional, cell-based; details: Homo sapiens;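 further: growth inhibition of human NCI-H1618 cells, measured by a cell viability assay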
Description: SANGER: Inhibition of human NCI-H1618 cell growth in a cell viability assay.

U-698-M = experiment: cells; type: functional, cell-based; details: Homo sapiens
Description: SANGER: Inhibition of human U-698-M cell growth in a cell viability assay.

CPC-N = experiment: cells; type: functional, cell-based; details: Homo sapiens;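 further: growth inhibition of CPC-N cells, with a cell viability assay as the readout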
Description: SANGER: Inhibition of human CPC-N cell growth in a cell viability assay.

MRK-nu-1 = experiment: cells; type: functional, cell-based; details: Homo sapiens;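 further: cell viability assay measuring growth suppression of human MRK-nu-1 cells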
Description: SANGER: Inhibition of human MRK-nu-1 cell growth in a cell viability assay.

BC1 cell line = experiment: SANGER: Inhibition of human BC-1 cell growth in a cell viability assay.; type: functional, cell-based
NCI-H524 = experiment: cells; type: functional, cell-based; details: Homo sapiens;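 further: growth inhibition of human NCI-H524 cells, read out through a cell viability assay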
Description: SANGER: Inhibition of human NCI-H524 cell growth in a cell viability assay.

NCCIT = experiment: SANGER: Inhibition of human NCCIT cell growth in a cell viability assay.; type: functional, cell-based
MES-SA = experiment: cells; type: functional, cell-based, Homo sapiens; details: Homo sapiens, MES-SA;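 further: growth inhibition of human MES-SA cells, read out with a cell viability assay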
Description: SANGER: Inhibition of human MES-SA cell growth in a cell viability assay.

SNU-423 = experiment: cells; type: functional, cell-based, Homo sapiens; details: Homo sapiens, SNU-423
Description: SANGER: Inhibition of human SNU-423 cell growth in a cell viability assay.

NALM-6 = experiment: cells; type: functional, cell-based; details: Homo sapiens;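 further: growth inhibition of NALM-6 cells, read out with a cell viability assay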
Description: SANGER: Inhibition of human NALM-6 cell growth in a cell viability assay.

P31-FUJ = experiment: cells; type: functional, cell-based; details: Homo sapiens;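 further: growth inhibition of P31-FUJ cells, read out with a viability assay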
Description: SANGER: Inhibition of human P31-FUJ cell growth in a cell viability assay.

COLO 205 = experiment: cells; type: functional, cell-based; details: Homo sapiens
Description: SANGER: Inhibition of human COLO-205 cell growth in a cell viability assay.

MOLT-13 = experiment: cells; type: functional, cell-based; details: Homo sapiens;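 further: IC50 for suppression of MOLT-13 cell growth, read out with a cell viability assay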
Description: SANGER: Inhibition of human MOLT-13 cell growth in a cell viability assay.

SKM-1 = experiment: SANGER: Inhibition of human SKM-1 cell growth in a cell viability assay.; type: functional, cell-based
ECC12 = experiment: cells; type: functional, cell-based; details: Homo sapiens
Description: SANGER: Inhibition of human ECC12 cell growth in a cell viability assay.

Cc1ccc(Nc2nccc(N(C)c3ccc4c(C)n(C)nc4c3)n2)cc1S(N)(=O)=O [PAZOPANIB]
IC50 (CCF-STTG1): 1.05 µM
IC50 (NCI-H1734): > 8 µM
IC50 (NCI-H2227): > 8 µM
IC50 (SNU-475): > 8 µM
IC50 (MDA-MB-468): > 8 µM
IC50 (EFE-184): > 8 µM
IC50 (NCI-H719): > 8 µM
IC50 (COR-L279): > 8 µM
IC50 (L-540): > 8 µM
IC50 (HCT-15): > 8 µM
IC50 (DV-90): > 8 µM
IC50 (EW-7): > 8 µM
IC50 (BL-70): > 8 µM
IC50 (SNG-M): 4.09 µM
IC50 (JIYOYE): > 8 µM
IC50 (PLC-PRF-5): > 8 µM
IC50 (SK-CO-1): > 8 µM
IC50 (TALL-1): > 8 µM
IC50 (Caov-3 cell line): > 8 µM
IC50 (Calu-1): > 8 µM
IC50 (OPM-2): > 8 µM
IC50 (NCI-H322M): > 8 µM
IC50 (IPC-298): > 8 µM
IC50 (Daudi): 3.66 µM
IC50 (HCC1143): > 8 µM
IC50 (CESS): > 8 µM
IC50 (SR): > 8 µM
IC50 (SNU-C1): > 8 µM
IC50 (TT): 5.66 µM
IC50 (NCI-H838): > 8 µM
IC50 (LC-1F): > 8 µM
IC50 (NCI-H2196): > 8 µM
IC50 (HSC-4): > 8 µM
IC50 (MC-CAR): > 8 µM
IC50 (MFE-296): 0.59 µM
IC50 (TUR): > 8 µM
IC50 (C-4-II): > 8 µM
IC50 (NCI-H1618): > 8 µM
IC50 (U-698-M): > 8 µM
IC50 (CPC-N): > 8 µM
IC50 (MRK-nu-1): > 8 µM
IC50 (BC1 cell line): > 8 µM
IC50 (NCI-H524): > 8 µM
IC50 (NCCIT): > 8 µM
IC50 (MES-SA): > 8 µM
IC50 (SNU-423): > 8 µM
IC50 (NALM-6): > 8 µM
IC50 (P31-FUJ): > 8 µM
IC50 (COLO 205): > 8 µM

CCc1nc(N)nc(N)c1-c1ccc(Cl)cc1 [PYRIMETHAMINE]
IC50 (NCI-H2227): > 20 µM
IC50 (MOLT-13): > 20 µM
IC50 (NCI-H719): > 20 µM
IC50 (COR-L279): 6.37 µM
IC50 (L-540): 10.5 µM
IC50 (SKM-1): > 20 µM
IC50 (BL-70): 14.6 µM
IC50 (JIYOYE): 10.9 µM
IC50 (TALL-1): > 20 µM
IC50 (OPM-2): > 20 µM
IC50 (NCI-H322M): > 20 µM
IC50 (Daudi): > 20 µM
IC50 (CESS): 5.71 µM
IC50 (SR): 16.5 µM
IC50 (SNU-C1): > 20 µM
IC50 (ECC12): 2.56 µM
IC50 (LC-1F): > 20 µM
IC50 (NCI-H2196): > 20 µM
IC50 (MC-CAR): > 20 µM
IC50 (TUR): > 20 µM
IC50 (U-698-M): > 20 µM
IC50 (CPC-N): > 20 µM
IC50 (MRK-nu-1): > 20 µM
IC50 (BC1 cell line): 5.1 µM
IC50 (NCI-H524): > 20 µM
IC50 (NCCIT): 6.93 µM
IC50 (NALM-6): 19.8 µM
IC50 (P31-FUJ): > 20 µM
